In ChEMBL document CHEMBL1153466, “Isoplatensimycin: Synthesis and biological evaluation” (2009):
In brackets after ≈: the same amount, converted by molar mass.

How the values were obtained:
Type in all cases: functional
Staphylococcus aureus [1] = experiment: Antimicrobial activity against vancomycin-susceptible Staphylococcus aureus isolate 11
Staphylococcus aureus [2] = experiment: Antimicrobial activity against methicillin-resistant Staphylococcus aureus isolate 6
Staphylococcus aureus [3] = experiment: Antimicrobial activity against vancomycin-resistant Staphylococcus aureus isolate 14
Staphylococcus aureus [4] = experiment: Antimicrobial activity against methicillin-susceptible Staphylococcus aureus isolate 1
Staphylococcus aureus [5] = experiment: Antimicrobial activity against methicillin-susceptible Staphylococcus aureus isolate 2
Staphylococcus aureus [6] = experiment: Antimicrobial activity against methicillin-resistant Staphylococcus aureus isolate 8
Staphylococcus aureus [7] = experiment: Antimicrobial activity against vancomycin-intermediate Staphylococcus aureus isolate 9
Staphylococcus aureus [8] = experiment: Antimicrobial activity against vancomycin-resistant Staphylococcus aureus isolate 13
Staphylococcus aureus [9] = experiment: Antimicrobial activity against methicillin-resistant Staphylococcus aureus isolate 7
Staphylococcus aureus [10] = experiment: Antimicrobial activity against vancomycin-intermediate Staphylococcus aureus isolate 10
Staphylococcus aureus [11] = experiment: Antimicrobial activity against methicillin-resistant Staphylococcus aureus isolate 5
Staphylococcus aureus [12] = experiment: Antimicrobial activity against vancomycin-resistant Staphylococcus aureus isolate 15
Staphylococcus aureus [13] = experiment: Antimicrobial activity against methicillin-susceptible Staphylococcus aureus isolate 4
Staphylococcus aureus [14] = experiment: Antimicrobial activity against methicillin-susceptible Staphylococcus aureus isolate 3
Staphylococcus aureus [15] = experiment: Antimicrobial activity against vancomycin-resistant Staphylococcus aureus isolate 12

Row | Compound | MIC (Staphylococcus aureus [1]) [µg/mL] | MIC (Staphylococcus aureus [2]) [µg/mL] | MIC (Staphylococcus aureus [3]) [µg/mL] | MIC (Staphylococcus aureus [4]) [µg/mL] | MIC (Staphylococcus aureus [5]) [µg/mL] | MIC (Staphylococcus aureus [6]) [µg/mL] | MIC (Staphylococcus aureus [7]) [µg/mL] | MIC (Staphylococcus aureus [8]) [µg/mL] | MIC (Staphylococcus aureus [9]) [µg/mL] | MIC (Staphylococcus aureus [10]) [µg/mL] | MIC (Staphylococcus aureus [11]) [µg/mL] | MIC (Staphylococcus aureus [12]) [µg/mL] | MIC (Staphylococcus aureus [13]) [µg/mL] | MIC (Staphylococcus aureus [14]) [µg/mL] | MIC (Staphylococcus aureus [15]) [µg/mL]
1 | CC12C[C@@]34C=CC(=O)[C@@](C)(CCC(=O)Nc5c(O)ccc(C(=O)O)c5O)C3[C@H](CC1C4)O2 (mixture of isomers) [PLATENSIMYCIN] | 2 | 4 | 0.5 | 4 | 64 | 4 | 4 | 1 | 16 | 4 | 4 | 0.5 | 2 | 128 | 1
2 | Cc1onc(-c2ccccc2)c1C(=O)N[C@@H]1C(=O)N2[C@@H]1SC(C)(C)[C@@H]2C(=O)O [OXACILLIN] |  | > 128 |  | 0.125 (≈ 0.311 µM) | 0.5 (≈ 1.25 µM) | > 128 | > 128 |  | 16 (≈ 39.9 µM) | > 128 | > 128 |  | 0.5 (≈ 1.25 µM) | 0.125 (≈ 0.311 µM) | 
3 | CN[C@H](CC(C)C)C(=O)N[C@H]1C(=O)N[C@@H](CC(N)=O)C(=O)N[C@H]2C(=O)N[C@H]3C(=O)N[C@H](C(=O)N[C@H](C(=O)O)c4cc(O)cc(O)c4-c4cc3ccc4O)[C@H](O)c3ccc(c(Cl)c3)Oc3cc2cc(c3O[C@@H]2O[C@H](CO)[C@@H](O)[C@H](O)[C@H]2O[C@H]2C[C@](C)(N)[C@H](O)[C@H](C)O2)Oc2ccc(cc2Cl)[C@H]1O [VANCOMYCIN] |  |  | > 128 |  |  |  |  | 128 (≈ 88.3 µM) |  |  |  | > 128 |  |  | 32 (≈ 22.1 µM)
4 | CC12CC3CC4(C=CC(=O)C(C)(CCC(=O)Nc5c(O)ccc(C(=O)O)c5O)C4C3O1)C2 (racemic) [ISOPLATENSIMYCIN] | 16 (≈ 36.2 µM) | > 128 | 2 (≈ 4.53 µM) | 128 (≈ 290 µM) | > 128 | > 128 | > 128 | 32 (≈ 72.5 µM) | > 128 | > 128 | > 128 | 4 (≈ 9.06 µM) | 128 (≈ 290 µM) | > 128 | 64 (≈ 145 µM)
